Reference: publication PMC7825173, “4’-O-Methylbroussochalcone B as a novel tubulin polymerization inhibitor suppressed the proliferation and migration of acute myeloid leukaemia cells” (BMC Cancer, 2021)

Tests used:
ML-2 cells [1] = assay: Apoptosis assay (Annexin V-FITC/PI flow cytometry), ML-2 cells; type: cell-based, human; details: 48 h
Method: (§1) ML-2 cells and OCI-AML5 cells were seeded in 6-well culture plates and treated with certain concentration of 4′-O-Methylbroussochalcone B for 48 h. Cells were harvested and suspended in binding buffer containing Annexin V-FITC (0.5 mg/mL) and PI (0.5 mg/mL) then. After that, samples were incubated for 25 min in dark and analyzed with flow cytometry (Becton, Dickinson and Company, NJ).

OCI-AML5 cells [2] = assay: Transwell migration assay, OCI-AML5 cells; type: cell-based, human; details: 24 h
Method: (§2) The cells (100 μl, 1 × 10^6 cells/ml) were suspended in the medium which contained 0.1% FBS and plated to the upper chamber of the transwell. The lower wells were incubated with the addition of the medium (600 μl per well), which included CCL25 (100 ng/ml; Cedarlane Laboratories, Burlington, Canada) and 0.1% FBS. The cells were hatched for 24 h at 37 °C with 5% CO2. Finally, the cells in the lower chamber were counted under a light microscope.

OCI-AML5 cells [3] = assay: Cell cycle assay, OCI-AML5 cells; type: cell-based, human; details: 2 μM and 4 μM, 48 h
Method: (§3) The samples of fixed cells were stained with 50 μg/ml Propidium iodide (PI, Sigma) in the dark for 30 min at room temperature, following the manufacturer’s protocol. Then the samples were tested by flow cytometer (Becton, Dickinson and Company, NJ). Data were analyzed via CellQuest software.

tubulin = assay: Tubulin polymerization assay in vitro; type: biochemical; details: 2 mg/mL tubulin, 60 min, 37 °C; read-out: IC50, inhibition of tubulin polymerization
Method: An amount of 2 mg/mL tubulin was resuspended in PEM buffer, consisted of 80 mM PIPES (pH 6.9), 2 mM MgCl2, 0.5 mM EGTA, and 15% glycerol. 4′-O-Methylbroussochalcone B (1 μM, 3 μM and 6 μM) was preincubated on ice. The reaction was monitored by a spectrophotometer in absorbance at 340 nm at 37 °C.
The tubulin assembly assay measured the extent of assembly of 2 mg/mL tubulin after 60 min at 37 °C. Data are presented as mean from three independent experiments.
The tubulin assembly assay measured the extent of assembly of 2 mg/mL tubulin after 60 minutes at 37 °C. Data are presented as mean from three independent experiments.

GDM-1 cells = assay: MTT antiproliferative assay, GDM-1 cells; type: cell-based, human; details: 72 h; for cell proliferation rate: 16 μM
Method: (§4) Cells were grown in a 5% CO2 incubator at 37 °C. We used trypsin to digest cells in logarithmic growth phase. Then, we plated the cells in 96-well plates at 5000 cells per well evenly. After cell adherence, chalcones were added in the 96-well plates for 48 h or 72 h. We added MTT reagent to each well and incubated for 2 h in the incubator. Finally, the absorbance value was measured at 490 nm after treatment with DMSO.

β-tubulin = assay: Immunofluorescence staining of β-tubulin in ML-2 cells; type: cell-based, human; details: 1 μM and 2 μM, 24 h
Method: ML-2 cells were seeded into 6-well plates and then treated with 4′-O-Methylbroussochalcone B for 24 h. ML-2 cells were washed with phosphate buffer solution (PBS), and then fixed in 4% paraformaldehyde. After blocking for 0.5 h in 5% goat serum albumin, ML-2 cells were incubated with anti-β-tubulin for 2 h. Then, ML-2 cells were washed by PBS and labeled by 4, 6-diamidino-2-phenylindole.

ML-2 cells [4] = assay: Transwell migration assay, ML-2 cells; type: cell-based, human; details: 24 h
Method: as §2

[5] = tested on: colchicine binding site of β-tubulin; assay: EBI competition assay in ML-2 cells; type: cell-based, human; details: preincubation at 10 μM, Western Blot
Method: ML-2 cells were seeded in 6-well plates for 24 h. 4′-O-Methylbroussochalcone B and colchicine treated them for 2 h respectively. Then, EBI were added. After 90 min, ML-2 cells were harvested to do Western Blot analysis. The signals were then visualized using chemiluminescent substrate (Zhengzhou research company, Zhengzhou, China).

ML-2 cells [6] = assay: MTT antiproliferative assay, ML-2 cells; type: cell-based, human; details: 72 h
Method: as §4

ML-2 cells [7] = assay: Cell cycle assay, ML-2 cells; type: cell-based, human; details: 2 μM and 4 μM, 48 h
Method: as §3

OCI-AML5 cells [8] = assay: MTT antiproliferative assay, OCI-AML5 cells; type: cell-based, human; details: 72 h
Method: as §4

CESS cells = assay: MTT antiproliferative assay, CESS cells; type: cell-based, human; details: 72 h
Method: as §4

OCI-AML5 cells [9] = assay: Apoptosis assay (Annexin V-FITC/PI flow cytometry), OCI-AML5 cells; type: cell-based, human; details: 48 h
Method: as §1

In the case of 4′-O-Methylbroussochalcone B, the “percentage of apoptotic cells (early and late phase)” value (ML-2 cells [1]; 2 μM) is reported as 13.68%, the “percentage of apoptotic cells (early and late phase)” value (ML-2 cells [1]; 4 μM) is reported as 55.04% and the cell migration (OCI-AML5 cells [2]) is reported as “evidently inhibited”. For the same compound, the “cell cycle distribution (G2-M phase)” value (OCI-AML5 cells [3]) was “arrested in the G2-M phase significantly”, the IC50 (tubulin) was 2.86 µM and the cell proliferation rate (GDM-1 cells) was 8.14%. The IC50 (GDM-1 cells) was 3.57 µM, the “expression of β-tubulin (immunofluorescence)” value (β-tubulin) was “suppressed in a concentration-dependent manner” and the cell migration (ML-2 cells [4]) was “evidently inhibited”. The “formation of EBI: β-tubulin adduct” value [5] was “prevented the formation of EBI: β-tubulin adduct”, the IC50 (ML-2 cells [6]) was 1.16 µM and the “cell cycle distribution (G2-M phase)” value (ML-2 cells [7]) was “arrested in the G2-M phase significantly”. It also gave an IC50 (OCI-AML5 cells [8]) of 2.03 µM, an IC50 (CESS cells) of 4.2 µM and an apoptotic rate (OCI-AML5 cells [9]; 2 μM) of 12.84%. For the same compound, the apoptotic rate (OCI-AML5 cells [9]; 4 μM) was 24.13%.
In the case of `CC1(C)C=Cc2cc(C(=O)/C=C/c3ccc(O)cc3)c(O)cc2O1` [Bavachromene], the IC50 (tubulin) is reported as 3.11 ± 0.1 µM and the cell proliferation rate (GDM-1 cells) is reported as 29.40%.
Compound `CC(C)=CCc1cc(C(=O)/C=C/c2ccc(O)cc2)c(O)cc1O` [Broussochalcone B] has an IC50 (tubulin) of 5.13 ± 0.45 µM and a cell proliferation rate (GDM-1 cells) of 29.67%.
With `CC1(C)CCc2c(ccc(C(=O)/C=C/c3ccc(O)cc3)c2O)O1` [Dorsmanin A] the IC50 (tubulin) was 4.39 ± 0.26 µM and the cell proliferation rate (GDM-1 cells) was 36.67%.
`CC(C)=CCc1c(O)ccc(C(=O)/C=C/c2ccc(O)cc2)c1O` [Isobavachalcone] was tested, and the IC50 (tubulin) was 6.38 ± 0.12 µM and the cell proliferation rate (GDM-1 cells) was 57.33%.
In the case of `CC1(C)C=Cc2c(ccc(C(=O)/C=C/c3ccc(O)cc3)c2O)O1` [Isobavachromene], the IC50 (tubulin) is reported as 8.24 ± 0.74 µM and the cell proliferation rate (GDM-1 cells) is reported as 69.00%.
